# Results reported in patent publication US10076522B2, “Systems and methods for treating bacterial infection” (priority 2016, dated 2018).
# Columns and labels:
# [1] = Phase III REVIVE-1 study, safety (adverse events)
# Method: All subjects who received any study drug were evaluated for safety on the basis of medical history and physical examinations, reports of clinical AEs, routine electrocardiography, and clinically significant findings from routine liver function tests, serum chemistry, hematology, coagulation, and urinalysis (UA) tests. All adverse events were recorded throughout the study period, up to and including the LFU phone call. While blinded to treatment assignment, the investigator categorized the severity of each AE and the potential for relationship to study drug. Serious AEs (SAEs) include those that were life threatening, led to prolongation of the existing hospitalization, a congenital anomaly/birth defect, or caused persistent or significant disability, incapacity, or death. Treatment-emergent AEs (TEAEs) were defined as those that start or worsen in severity during or after the first dose of study drug administration through end of study.
# Safety evaluation included incidence of TEAEs, laboratory test results (including liver function tests), vital signs, ECG results, and physical examination findings. All summaries of safety data was based on the safety population (all treated subjects).
# The AE summary tables included subject (patient) counts. Therefore, if a subject experienced more than one episode of a particular AE, the subject was counted only once for that event. If a subject had more than one AE that was coded to the same preferred term, the subject was counted only once for that preferred term. Similarly, if a subject had more than one AE within a SOC, the subject was counted only once in that SOC.
# [2] = clinical; details: human, in vivo, 1 mg/kg
# [3] = PK of IV iclaprim in subjects with moderate hepatic impairment; type: in vivo, human; details: moderate hepatic impairment (Child-Pugh grade B)
# Method: For example, the PK profile of 0.8 mg/kg iclaprim administered by IV was investigated in 8 subjects with mild to moderate obesity (body mass index or “BMI” 30-40) and in 8 subjects with severe obesity (BMI>40). […] Linear regression analysis indicated a strong linear relationship between AUC (and Cmax) and BMI. Thus it was clear that the body composition of the subject affected the pharmacokinetics of IV administered iclaprim, with a greater percentage of body fat causing an increase in AUC and Cmax. […] Thus there is a risk of overdosing subjects with moderate hepatic impairment, which can be mitigated by reducing the IV iclaprim dose by about 50%.
smiles,measurement,setting,value
COc1cc(Cc2cnc(N)nc2N)c2c(c1OC)OC(C1CC1)C=C2 (racemic) [Iclaprim],"Deaths, number of subjects",[1]; REVIVE-1 safety population,0
same,"Deaths, percent of subjects",[1]; REVIVE-1 safety population,0.0%
same,"Study drug related TEAEs, number of subjects","[1]; human, in vivo",57
same,"Study drug related TEAEs, percent of subjects","[1]; human, in vivo",19.5%
same,"TEAE-related SAEs (Serious AEs), number of subjects","[1]; human, in vivo",8
same,"TEAE-related SAEs (Serious AEs), percent of subjects","[1]; human, in vivo",2.7%
same,"TEAEs (Treatment Emergent Adverse Events), number of subjects","[1]; human, in vivo",151
same,"TEAEs (Treatment Emergent Adverse Events), percent of subjects","[1]; human, in vivo",51.5%
same,"TEAEs leading to discontinuation of study drug, number of subjects","[1]; human, in vivo",8
same,"TEAEs leading to discontinuation of study drug, percent of subjects","[1]; human, in vivo",2.7%
same,Cmax,[2],792 ng/mL
same,increase in AUC,[3],2.5 fold
same,increase in Cmax,[3],1.4 fold
